System: Wnt activity (Sp5-Luc reporter, human Sp5 promoter with eight TCF/LEF binding sites) in SW480 colon carcinoma cells
Assay: Screening assay for Wnt activity: Sp5-Luc reporter gene assay in SW480 cells
Type: cell-based
Details: for inhibition at 10 µM: read-out: percent inhibition at 10 μM (given for EC50 of >10 μM); for EC50: 10-point dose-response starting from 10 μM, overnight incubation
Text: The screening assay for Wnt activity is described as follows. Reporter cell lines can be generated by stably transducing cancer cell lines (e.g., colon cancer) or primary cells (e.g., IEC-6 intestinal cells) with a lentiviral construct that includes a Wnt-responsive promoter driving expression of the firefly luciferase gene.
SW480 colon carcinoma cells were transduced with a lentiviral vector expressing luciferase with a human Sp5 promoter consisting of a sequence of eight TCF/LEF binding sites. SW480 cells stably expressing the Sp5-Luc reporter gene and a hygromycin resistance gene were selected by treatment with 150 μg/mL of hygromycin for 7 days. These stably transduced SW480 cells were expanded in cell culture and used for all further screening activities. Each compound was dissolved in DMSO as a 10 mM stock and used to prepare compound source plates. Serial dilution (1:3, 10-point dose-response curves starting from 10 μM) and compound transfer was performed using the ECHO 550 (Labcyte, Sunnyvale, Calif.) into 384-well white solid bottom assay plates (Greiner Bio-One) with appropriate DMSO backfill for a final DMSO concentration of 0.1%. For Sp5-Luc reporter gene assays, the cells were plated at 4,000 cells/well in 384-well plates with medium containing 1% fetal bovine serum and incubated overnight at 37° C. and 5% CO2. Following incubation, 20 μl of BrightGlo luminescence reagent (Promega) was added to each well of the 384-well assay plates. The plates were placed on an orbital shaker for 2 min and then luminescence was quantified using the Envision (Perkin Elmer) plate reader. Readings were normalized to DMSO only treated cells, and normalized activities were utilized for EC50 calculations using the dose-response log (inhibitor) vs. response -variable slope (four parameters) nonlinear regression feature available in GraphPad Prism 5.0 (or Dotmatics). For EC50 of >10 μM, the percent inhibition at 10 μM is provided.

EC50 [µM] | SMILES | inhibition at 10 µM [%]
> 10 | CC(C)(C)CC(=O)Nc1cncc(-c2ccc3[nH]nc(-c4nc5c(-c6ccccc6F)cncc5[nH]4)c3n2)c1 [Compound 72, N-(5-(3-(7-(2-fluorophenyl)-3H-imidazo[4,5-c]pyridin-2-yl)-1H-pyrazolo[4,3-b]pyridin-5-yl)pyridin-3-yl)-3,3-dimethylbutanamide] | 5.7
> 10 | c1ccc(CNCc2cncc(-c3ccc4[nH]nc(-c5nc6c(-c7cccnc7)cncc6[nH]5)c4n3)c2)cc1 [Compound 108, N-Benzyl-1-(5-(3-(7-(pyridin-3-yl)-3H-imidazo[4,5-c]pyridin-2-yl)-1H-pyrazolo[4,3-b]pyridin-5-yl)pyridin-3-yl)methanamine] | 5.3
> 10 | c1cc(-c2ccc3[nH]nc(-c4nc5c(-c6ccncc6)cncc5[nH]4)c3n2)ccn1 [Compound 130, 5-(pyridin-4-yl)-3-(7-(pyridin-4-yl)-3H-imidazo[4,5-c]pyridin-2-yl)-1H-pyrazolo[4,3-b]pyridine] | 9.8
> 10 | O=C(Nc1cncc(-c2ccc3[nH]nc(-c4nc5c(-c6ccccn6)cncc5[nH]4)c3n2)c1)c1ccccc1 [Compound 151, N-(5-(3-(7-(Pyridin-2-yl)-3H-imidazo[4,5-c]pyridin-2-yl)-1H-pyrazolo[4,3-b]pyridin-5-yl)pyridin-3-yl)benzamide] | 23.9
> 10 | CN1CCN(c2cncc3[nH]c(-c4n[nH]c5ccc(-c6cncc(NC(=O)C7CCCC7)c6)nc45)nc23)CC1 [Compound 246, N-(5-(3-(7-(4-Methylpiperazin-1-yl)-3H-imidazo[4,5-c]pyridin-2-yl)-1H-pyrazolo[4,3-b]pyridin-5-yl)pyridin-3-yl)cyclopentanecarboxamide] | 3.9
> 10 | O=C(Nc1cncc(-c2ccc3[nH]nc(-c4nc5c(-c6ccsc6)cncc5[nH]4)c3n2)c1)c1ccccc1 [Compound 263, N-(5-(3-(7-(Thiophen-3-yl)-3H-imidazo[4,5-c]pyridin-2-yl)-1H-pyrazolo[4,3-b]pyridin-5-yl)pyridin-3-yl)benzamide] | 7.6
> 10 | O=C(Nc1cncc(-c2ccc3[nH]nc(-c4nc5c(-c6cccs6)cncc5[nH]4)c3n2)c1)C1CC1 [Compound 328, N-(5-(3-(7-(Thiophen-2-yl)-3H-imidazo[4,5-c]pyridin-2-yl)-1H-pyrazolo[4,3-b]pyridin-5-yl)pyridin-3-yl)cyclopropanecarboxamide] | 3.7
> 10 | CS(=O)(=O)NCc1cc(F)cc(-c2cncc3[nH]c(-c4n[nH]c5ccc(-c6cncc(CNCc7ccccc7)c6)nc45)nc23)c1 [Compound 472, N-(3-(2-(5-(5-((Benzylamino)methyl)pyridin-3-yl)-1H-pyrazolo[4,3-b]pyridin-3-yl)-3H-imidazo[4,5-c]pyridin-7-yl)-5-fluorobenzyl)methanesulfonamide] | 20.1
> 10 | CS(=O)(=O)NCc1cc(F)cc(-c2cncc3[nH]c(-c4n[nH]c5ccc(-c6cncnc6)nc45)nc23)c1 [Compound 475, N-(3-Fluoro-5-(2-(5-(pyrimidin-5-yl)-1H-pyrazolo[4,3-b]pyridin-3-yl)-3H-imidazo[4,5-c]pyridin-7-yl)benzyl)methanesulfonamide] | 31.4
> 10 | c1cc(-c2cncc3[nH]c(-c4n[nH]c5ccc(-c6cncc(OC7CCNCC7)c6)nc45)nc23)ccn1 [Compound 548, 5-(5-(Piperidin-4-yloxy)pyridin-3-yl)-3-(7-(pyridin-4-yl)-3H-imidazo[4,5-c]pyridin-2-yl)-1H-pyrazolo[4,3-b]pyridine] | 16.1
> 10 | c1ccc(COc2cncc(-c3ccc4[nH]nc(-c5nc6c(-c7ccncc7)cncc6[nH]5)c4n3)c2)cc1 [Compound 554, 5-(5-(Benzyloxy)pyridin-3-yl)-3-(7-(pyridin-4-yl)-3H-imidazo[4,5-c]pyridin-2-yl)-1H-pyrazolo[4,3-b]pyridine] | 0
> 10 | CN(C)CCOc1cncc(-c2ccc3[nH]nc(-c4nc5c(-c6cccs6)cncc5[nH]4)c3n2)c1 [Compound 663, N,N-Dimethyl-2-((5-(3-(7-(thiophen-2-yl)-3H-imidazo[4,5-c]pyridin-2-yl)-1H-pyrazolo[4,3-b]pyridin-5-yl)pyridin-3-yl)oxy)ethan-1-amine] | 46.7
> 10 | Cn1cc(-c2ccc3[nH]nc(-c4nc5c(-c6cc(F)cc(CNS(C)(=O)=O)c6)cncc5[nH]4)c3n2)cn1 [Compound 720, N-(3-Fluoro-5-(2-(5-(1-methyl-1H-pyrazol-4-yl)-1H-pyrazolo[4,3-b]pyridin-3-yl)-3H-imidazo[4,5-c]pyridin-7-yl)benzyl)methanesulfonamide] | 16.4

The next lines start with the compound.

SMILES | EC50 [µM] | inhibition at 10 µM [%]
O=C(Nc1cncc(-c2ccc3[nH]nc(-c4nc5c(-c6ccccc6F)cncc5[nH]4)c3n2)c1)C1CCCC1 [Compound 78, N-(5-(3-(7-(2-Fluorophenyl)-3H-imidazo[4,5-c]pyridin-2-yl)-1H-pyrazolo[4,3-b]pyridin-5-yl)pyridin-3-yl)cyclopentanecarboxamide] | > 10 | 6.6
O=C(Nc1cncc(-c2ccc3[nH]nc(-c4nc5c(-c6ccncc6)cncc5[nH]4)c3n2)c1)C1CCCCC1 [Compound 135, N-(5-(3-(7-(pyridin-4-yl)-3H-imidazo[4,5-c]pyridin-2-yl)-1H-pyrazolo[4,3-b]pyridin-5-yl)pyridin-3-yl)cyclohexanecarboxamide] | > 10 | 1.2
CN1CCN(c2cncc3[nH]c(-c4n[nH]c5ccc(-c6cncnc6)nc45)nc23)CC1 [Compound 251, 3-(7-(4-Methylpiperazin-1-yl)-3H-imidazo[4,5-c]pyridin-2-yl)-5-(pyrimidin-5-yl)-1H-pyrazolo[4,3-b]pyridine] | > 10 | 14.4
c1csc(-c2cncc3[nH]c(-c4n[nH]c5ccc(-c6ccncc6)nc45)nc23)c1 [Compound 326, 5-(Pyridin-4-yl)-3-(7-(thiophen-2-yl)-3H-imidazo[4,5-c]pyridin-2-yl)-1H-pyrazolo[4,3-b]pyridine] | > 10 | 12.7
Cc1ccc(-c2cncc3[nH]c(-c4n[nH]c5ccc(-c6cncc(NC(=O)C7CCCC7)c6)nc45)nc23)s1 [Compound 386, N-(5-(3-(7-(5-Methylthiophen-2-yl)-3H-imidazo[4,5-c]pyridin-2-yl)-1H-pyrazolo[4,3-b]pyridin-5-yl)pyridin-3-yl)cyclopentanecarboxamide] | > 10 | 8.7
CS(=O)(=O)NCc1cc(F)cc(-c2cncc3[nH]c(-c4n[nH]c5ccc(-c6cncc(NC(=O)c7ccccc7)c6)nc45)nc23)c1 [Compound 459, N-(5-(3-(7-(3-Fluoro-5-(methylsulfonamidomethyl)phenyl)-3H-imidazo[4,5-c]pyridin-2-yl)-1H-pyrazolo[4,3-b]pyridin-5-yl)pyridin-3-yl)benzamide] | > 10 | 9.6
c1cncc(-c2cncc3[nH]c(-c4n[nH]c5ccc(-c6cncc(OC7CCCCC7)c6)nc45)nc23)c1 [Compound 531, 5-(5-(Cyclohexyloxy)pyridin-3-yl)-3-(7-(pyridin-3-yl)-3H-imidazo[4,5-c]pyridin-2-yl)-1H-pyrazolo[4,3-b]pyridine] | > 10 | 24.3
Oc1cncc(-c2ccc3[nH]nc(-c4nc5c(-c6cccnc6)cncc5[nH]4)c3n2)c1 [Compound 537, 5-(3-(7-(Pyridin-3-yl)-3H-imidazo[4,5-c]pyridin-2-yl)-1H-pyrazolo[4,3-b]pyridin-5-yl)pyridin-3-ol] | > 10 | 9.9
c1cc(-c2cncc3[nH]c(-c4n[nH]c5ccc(-c6cnccn6)nc45)nc23)ccn1 [Compound 556, 5-(Pyrazin-2-yl)-3-(7-(pyridin-4-yl)-3H-imidazo[4,5-c]pyridin-2-yl)-1H-pyrazolo[4,3-b]pyridine] | > 10 | 9.5
Cn1cc(-c2ccc3[nH]nc(-c4nc5c(-c6cccs6)cncc5[nH]4)c3n2)cn1 [Compound 656, 5-(1-Methyl-1H-pyrazol-4-yl)-3-(7-(thiophen-2-yl)-3H-imidazo[4,5-c]pyridin-2-yl)-1H-pyrazolo[4,3-b]pyridine] | > 10 | 3
Cc1ccc(-c2cncc3[nH]c(-c4n[nH]c5ccc(C6=CCNCC6)nc45)nc23)s1 [Compound 686, 3-(7-(5-Methylthiophen-2-yl)-3H-imidazo[4,5-c]pyridin-2-yl)-5-(1,2,3,6-tetrahydropyridin-4-yl)-1H-pyrazolo[4,3-b]pyridine] | > 10 | 52.6

From US10188634B2, “3-(3H-imidazo[4,5-C]pyridin-2-yl)-1 H-pyrazolo[4,3-B]pyridines and therapeutic uses thereof” (Samumed, LLC, priority 2015, dated 2019)
